These results are taken from ChEMBL document CHEMBL1131266, “Synthesis and pharmacological evaluation of new flosulide analogues, synthesized from natural safrole” (1998).

The subject of assay [1] is Rattus norvegicus. The assay is described as follows: Percent inhibition of edema in carrageenan-induced rat paw edema was determined by comparing with vehicle control group when tested on 14 rats at peroral dose of 100 umol/Kg; Not significant. The assay is classed as functional. Conditions: po. A general note: Carrageenan injected into the paw causes an acute inflammation.

For assay [2], the system named is Rattus norvegicus. The assay is described as follows: Percent inhibition of pleural inflammation in carrageenan-induced rat model was determined by comparing with vehicle control group when tested on 5 rats at peroral dose of 100 umol/Kg. The assay is classed as functional. Conditions: po.
The subject of assay [3] is Rattus norvegicus. The assay is described as follows: Percent inhibition of edema in carrageenan-induced rat paw edema was determined by comparing with vehicle control group when tested on 5 rats at peroral dose of 100 umol/Kg. It counts as functional. Conditions: po.
The subject of assay [4] is Rattus norvegicus. The assay is described as follows: Percent inhibition of edema in carrageenan-induced rat paw edema was determined by comparing with vehicle control group when tested on 10 rats at peroral dose of 100 umol/Kg. The settings on record: po. The assay is classed as functional.
Assay [5] has as its system Rattus norvegicus. The assay is described as follows: Percent inhibition of pleural inflammation in carrageenan-induced rat model was determined by comparing with vehicle control group when tested on 10 rats at peroral dose of 100 umol/Kg. It counts as functional. The settings on record: po.
The species entered for assay [6] is Rattus norvegicus. The assay is described as follows: animal or person. The settings on record: po, read-out: Inhibition.
Description: Percent inhibition of pleural inflammation in carrageenan-induced rat model was determined by comparing with vehicle control group when tested on 8 rats at peroral dose of 100 umol/Kg

Consider `CNS(=O)(=O)c1cc2c(cc1Cc1ccccc1)OCO2`, for which the inhibition in vivo at 100 µmol/kg in assay [1] worked out at 2.7%; in assay [2] it was 46%.
In the case of `CS(=O)(=O)Nc1cc2c(cc1Cc1cccc(C(F)(F)F)c1)OCO2`, the inhibition in vivo at 100 µmol/kg in assay [3] worked out at 19.7%; in assay [2], 24.6%.
For `CS(=O)(=O)Nc1cc2c(cc1Cc1ccccc1)OCO2`, the inhibition in vivo at 100 µmol/kg in assay [4] is 21%; in assay [2] it was 43.1%.
Consider `O=S(=O)(Nc1ccccc1)c1cc2c(cc1Cc1ccccc1)OCO2`, for which the values for the inhibition in vivo at 100 µmol/kg in assay [3] and in assay [2] were 27.2% and 24.6%, respectively.
Consider `COc1ccc2c(c1)c(CC(=O)O)c(C)n2C(=O)c1ccc(Cl)cc1` [INDOMETHACIN], for which the inhibition in vivo at 100 µmol/kg in assay [3] came to 85.4%; in assay [5] it was 31.7%.
Consider `CS(=O)(=O)Nc1ccc([N+](=O)[O-])cc1Oc1ccccc1` [NIMESULIDE], for which the inhibition in vivo at 100 µmol/kg in assay [3] is 61.7%; in assay [6], 29.9%.
